biological target: T1, MAGL protein (Homo sapiens, UniProt Q99685); assay: 2-AG assay: MAGL inhibitory activity by hydrolysis of 2-arachidonoylglycerol to arachidonic acid, followed by mass spectrometry; type: biochemical; settings: 8 μM 2-arachidonoylglycerol, 15 min preincubation, 30 min reaction at RT, RapidFire MS readout
T1 sequence (Q99685 1-303): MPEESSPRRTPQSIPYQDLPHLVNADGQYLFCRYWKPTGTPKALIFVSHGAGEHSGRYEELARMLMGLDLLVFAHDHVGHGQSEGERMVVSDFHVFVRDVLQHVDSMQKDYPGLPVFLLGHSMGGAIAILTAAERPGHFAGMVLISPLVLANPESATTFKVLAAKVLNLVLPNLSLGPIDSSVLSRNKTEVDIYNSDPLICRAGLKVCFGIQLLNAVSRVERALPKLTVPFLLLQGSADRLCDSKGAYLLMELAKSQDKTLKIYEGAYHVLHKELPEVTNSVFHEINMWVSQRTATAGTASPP
Outline: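 MAGL was preincubated 15 min at RT with compound (12.5 to […], 3-fold steps) in 50 mM TRIS, 1 mM EDTA, 0.01% Tween-20, 2.5% DMSO. The reaction ran 30 min at RT with 8 μM 2-AG. Arachidonic acid was quantified by RapidFire SPE-MS/MS against a d8-arachidonic acid internal standard.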

IC50 [nM] | SMILES
4.48 | CS(=O)(=O)c1cc(F)ccc1CC1CC2(C1)CN(C(=O)N1CC3(CC(c4nnc(C5CCC5)[nH]4)C3)C1)C2 [compound 25]
0.02 | N#Cc1cc(CC2CC3(C2)CN(C(=O)N2CC4(CC(c5nnc(C6CC6)[nH]5)C4)C2)C3)ccc1C(F)(F)F [compound 26]
0.11 | N#Cc1cc(CC2CC3(C2)CN(C(=O)N2CC4(CC(c5nnc(C6(O)CC6)[nH]5)C4)C2)C3)ccc1C(F)(F)F [compound 27]
0.94 | O=C(N1CC2(CC(Cc3ncc(C(F)(F)F)cn3)C2)C1)N1CC2(CC(c3nnc(C4CC4)[nH]3)C2)C1 [compound 28]
0.01 | O=C(N1CC2(CC(Cc3ccc(F)cc3C(F)(F)F)C2)C1)N1CC2(CC(c3nnc(C4CC4)[nH]3)C2)C1 [compound 33]
0.01 | O=C(N1CC2(CC(Cc3ccc(F)cc3C(F)(F)F)C2)C1)N1CC2(CC(c3nnc(C4(O)CC4)[nH]3)C2)C1 [compound 34]
0.07 | O=C(N1CC2(CC(Cc3ccc(F)cc3F)C2)C1)N1CC2(CC(c3nnc(C4CC4)[nH]3)C2)C1 [compound 35]
0.05 | O=C(N1CC2(CC(Cc3ccc(F)cc3F)C2)C1)N1CC2(CC(c3nnc(C4(O)CC4)[nH]3)C2)C1 [compound 36]
0.01 | O=C(N1CC2(CC(Cc3ccc(C(F)(F)F)cc3F)C2)C1)N1CC2(CC(c3nnc(C4CC4)[nH]3)C2)C1 [compound 37]
0.01 | O=C(N1CC2(CC(Cc3ccc(C(F)(F)F)cc3F)C2)C1)N1CC2(CC(c3nnc(C4(O)CC4)[nH]3)C2)C1 [compound 38]
0.15 | CS(=O)(=O)c1cc(C(F)(F)F)ccc1CC1CC2(C1)CN(C(=O)N1CC3(CC(c4nnc(C5CC5)[nH]4)C3)C1)C2 [compound 39]
0.4 | CS(=O)(=O)c1cc(C(F)(F)F)ccc1CC1CC2(C1)CN(C(=O)N1CC3(CC(c4nnc(C5(O)CC5)[nH]4)C3)C1)C2 [compound 40]
0.24 | CS(=O)(=O)c1cc(CC2CC3(C2)CN(C(=O)N2CC4(CC(c5nnc(C6CC6)[nH]5)C4)C2)C3)ccc1C(F)(F)F [compound 41]
0.88 | CS(=O)(=O)c1cc(CC2CC3(C2)CN(C(=O)N2CC4(CC(c5nnc(C6(O)CC6)[nH]5)C4)C2)C3)ccc1C(F)(F)F [compound 42]
0.58 | O=C(N1CC2(CC(Cc3ccc(F)cn3)C2)C1)N1CC2(CC(c3nnc(C4CC4)[nH]3)C2)C1 [compound 43]
2.24 | O=C(N1CC2(CC(Cc3ccc(F)cn3)C2)C1)N1CC2(CC(c3nnc(C4(O)CC4)[nH]3)C2)C1 [compound 44]
2.37 | O=C(N1CC2(CC(Cc3cncc(F)c3)C2)C1)N1CC2(CC(c3nnc(C4CC4)[nH]3)C2)C1 [compound 45]
0.9 | CS(=O)(=O)c1ccc(CC2CC3(C2)CN(C(=O)N2CC4(CC(c5nnc(C6CC6)[nH]5)C4)C2)C3)cc1C(F)(F)F [compound 46]
0.27 | CS(=O)(=O)c1ccc(CC2CC3(C2)CN(C(=O)N2CC4(CC(c5nnc(C6(O)CC6)[nH]5)C4)C2)C3)cc1C(F)(F)F [compound 47]
0.13 | O=C(N1CC2(CCC(Cc3ccc(C(F)(F)F)cn3)CC2)C1)N1CC2(CC(c3nnc(C4CC4)[nH]3)C2)C1 [compound 48]
0.81 | O=C(N1CC2(CCC(Cc3ccc(C(F)(F)F)cn3)CC2)C1)N1CC2(CC(c3nnc(C4(O)CC4)[nH]3)C2)C1 [compound 49]
0.19 | O=C(N1CC2(CCC(Cc3ccc(C(F)(F)F)cn3)C2)C1)N1CC2(CC(c3nnc(C4CC4)[nH]3)C2)C1 (centres unmarked) [compound 50]
1.77 | O=C(N1CC2(CCC(Oc3ccc(C(F)(F)F)nn3)CC2)C1)N1CC2(CC(c3nnc(C4CC4)[nH]3)C2)C1 [compound 51]
18.7 | O=C(N1CC2(CCC(Oc3ccc(C(F)(F)F)nn3)CC2)C1)N1CC2(CC(c3nnc(C4CCC4)[nH]3)C2)C1 [compound 52]
179 | CP1(=O)CCN(c2ccc(C3CN(C(=O)N4CC5(CC(c6nnc(C7CC7)[nH]6)C5)C4)C3)cn2)CC1 [compound 53]
2.8 | O=C(N1CC2(CC(CNC3(C(F)(F)F)CC3)C2)C1)N1CC2(CC(c3nnc(C4CC4)[nH]3)C2)C1 [compound 54]

From patent publication US20250099448A1, “HETEROCYCLIC COMPOUNDS” (Hoffmann-La Roche Inc., priority 2022, published 2025)
